Assay results as given in US12168055B2, “Sonosensitization” (priority 2019, dated 2024).
Like-named read-outs stand apart in the source and are kept apart here.

Legend:
SAS cells = conditions: cited from earlier work; for cell viability: about 2 W/cm^2, 2 min
[1] = test system: U87 and U251 glioma cells, and U251^Oct-3/4 glioma stem-like cells; conditions: 5-ALA 1 mM + ultrasound 3 MHz, 2 W/cm^2, 20% duty cycle, 3 min; cited from earlier work
normal control cells = conditions: 5-ALA 1 mM + ultrasound 3 MHz, 2 W/cm^2, 20% duty cycle, 3 min; cited from earlier work
[2] = test system: human U87 glioma cells or U251^Oct-3/4 glioma stem-like cells; conditions: 5-ALA 100 mg/kg + ultrasound 2.2 MHz, 0.5 or 2.0 W/cm^2, 3 min, weekly for 3 weeks; cited from earlier work
C6 rat glioma cells = conditions: 5-ALA 100 mg/kg orally 3 h before ultrasound 1.04 MHz, 10 W/cm^2, 5 min; vs 5-ALA or ultrasound alone; cited from earlier work
C6 glioma cells = conditions: 5-ALA 60 mg/kg or Radachlorin 40 mg/kg + ultrasound 1.0 MHz, 2.65 W/cm^2, 20 min; vs control groups; cited from earlier work
[3] = test system: rat osteosarcoma UMR-106 cells; conditions: 5-ALA 250 mg/kg i.v. 8 h before ultrasound 1.0 MHz, 2.5 W/cm^2, 8 min daily for 10 days; vs all other groups; cited from earlier work
normal brain tissue = conditions: cited from earlier work
[4] = test system: human THP-1 monocytes (induced to become macrophages and foam cells); conditions: berberine 30 μg/mL, ultrasound 1.0 MHz, 0.4 W/cm^2, 10 min; cited from earlier work
mammary tumors = conditions: porfimer sodium 2.5 mg/kg or higher i.v. 24 h before ultrasound 1.92 MHz, 15 min, 3 W/cm^2 or higher; cited from earlier work

Method for C6 glioma tumor cells: Male Wistar rats received injections of 4×10^5 C6 glioma tumor cells by injection into the right cortex of the brain. On day 7 after injection, rats were administered 5-aminolevulinic acid (20 mg/kg or 0 mg/kg, Levulan®, DUSA Pharmaceuticals, Wilmington, MA) orally, three hours prior to treatment.
Rats were anesthetized and set inside an MRI-guided focused ultrasound system (“FUS”, RK300, FUS Instruments, Toronto, Canada), having a 25 mm diameter spherically curved transducer (resonant frequency f0=1.06 MHz, focal number=0.8). The FUS, with rat, was then inserted into a 7 Telsa MRI system (Brucker BioSpec 70/30 USR, Bruker Ltd., Milton, Ontario, Canada). The MRI was used to precisely aim the FUS device at the brain tumor. Rats were then sonicated at one of four spatial peak temporal average intensities (ISPTA) (6.9 W/cm^2, 13.8 W/cm^2, 27.6 W/cm^2, or 55.2 W/cm^2) for 20 minutes. One group (N=6) was cyclicly sonicated at 27.6 W/cm^2 for 20 minutes, divided into 16 sonication periods of 85 seconds, separated by rest periods of 60 seconds (the multiple point, or “MP” group). In the MP group, 16 individual points within the tumor were sonicated. Control groups (N=5 each) received 5-ALA without FUS treatment, FUS treatment without 5-ALA, or neither 5-ALA nor FUS. Tumor temperature was monitored during sonication using magnetic resonance thermometry. Normalized tumor volume was measured by MRI on days 7, 14, 21, 28, and 35 following injection.

Question: What does the source list for `NCC(=O)CCC(=O)O` [5-ALA, 5-aminolevulinic acid]?
Answer: survival, multiple point (MP) group (C6 glioma tumor cells; 5-ALA 20 mg/kg + FUS 27.6 W/cm^2, 16 points, 16 periods of 85 s with 60 s rest): greatest increase in survival; survival (C6 glioma tumor cells; 5-ALA 20 mg/kg orally 3 h before FUS (1.06 MHz, 20 min), all experimental groups): improved survival; tumor growth (C6 glioma tumor cells; 5-ALA 20 mg/kg orally 3 h before FUS (1.06 MHz, 20 min), all experimental groups vs control animals): inhibited tumor growth; tissue damage (C6 glioma tumor cells; 5-ALA 20 mg/kg, sonication at 55.2 W/cm^2): suffered tissue damage; normalized tumor volume (C6 glioma tumor cells; 5-ALA only group (20 mg/kg orally), no FUS): 24+6 mm^3; subjects surviving past 60 days (C6 glioma tumor cells; MP group: 5-ALA 20 mg/kg + FUS 27.6 W/cm^2 at 16 points): 50%; SAS cell apoptosis, intracellular reactive oxygen species, and lipid peroxidation (SAS cells; 10 μg/mL 5-ALA added to ultrasound, vs ultrasound alone): significantly increased these effects; cell viability (SAS cells; 5-ALA 1 μg/mL 4 h before ultrasound 1.05 MHz): 88%; cell viability (SAS cells; 5-ALA 10 μg/mL 4 h before ultrasound 1.05 MHz): 75%; cell viability (SAS cells; 5-ALA 50 μg/mL 4 h before ultrasound 1.05 MHz): 62%; cytotoxicity to tumor cells [1]: substantially cytotoxic to all tumor cells tested; cytotoxicity to normal control cells (normal control cells): not to normal control cells; survival of treated mice [2]: significantly improved the survival; tumor size (C6 rat glioma cells): significantly smaller tumors; tumor size (C6 glioma cells): significantly smaller in size; tumor volumes [3]: significantly smaller than all other groups

Question: Which rats displaying lesions (normal brain tissue; Rose Bengal 10 mg/kg, ultrasound 110 W/cm^2, 3 min) does the source give for `O=C([O-])c1c(Cl)c(Cl)c(Cl)c(Cl)c1-c1c2cc(I)c(=O)c(I)c-2oc2c(I)c([O-])c(I)cc12.[Na+].[Na+]` [Rose Bengal] here?
Answer: Its rats displaying lesions is 5/5.

Question: And the rats displaying lesions (normal brain tissue; Rose Bengal 10 mg/kg, ultrasound 110 W/cm^2, 5 min)?
Answer: Its rats displaying lesions is 6/7.

Question: What about the rats displaying lesions (normal brain tissue; Rose Bengal 50 mg/kg, ultrasound 110 W/cm^2, 3 min) of the same molecule?
Answer: Its rats displaying lesions is 5/5.

Question: And the rats displaying lesions (normal brain tissue; Rose Bengal 50 mg/kg, ultrasound 110 W/cm^2, 5 min)?
Answer: Its rats displaying lesions is 6/6.

Question: And the “lesions in normal brain tissue” value (normal brain tissue; ultrasound 25 W/cm^2, with or without Rose Bengal)?
Answer: Its value is “no lesions”.

Question: For `COc1ccc2cc3[n+](cc2c1OC)CCc1cc2c(cc1-3)OCO2` [berberine], which autophagy in macrophages [4] is on record?
Answer: The autophagy in macrophages was “induced autophagy in macrophages”.

Question: And the cholesterol efflux [4]?
Answer: The cholesterol efflux was “increased cholesterol efflux”.

Question: For porfimer sodium, which tumor growth (mammary tumors) is on record?
Answer: Its tumor growth is “effectively inhibited tumor growth”.
